Results published in PubChem BioAssay (NCI).
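The compound was tested at five concentrations on cells cultured in 96-well plates, with a 48-hour exposure period. GI50: concentration for 50% inhibition of growth. At the TGI there is no net growth.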

Experiments:
Assay in all cases: NCI anticancer screen, dose series, 48 h
BT-549 breast = system: BT-549 breast
HL-60(TB) leukemia = system: HL-60(TB) leukemia
RXF 393 renal = system: RXF 393 renal
HT29 colon = system: HT29 colon
NCI-H460 lung = system: NCI-H460 lung
ACHN renal = system: ACHN renal
MOLT-4 leukemia = system: MOLT-4 leukemia
UACC-62 melanoma = system: UACC-62 melanoma
A498 renal = system: A498 renal
MDA-MB-435 = system: MDA-MB-435
SR leukemia = system: SR leukemia
KM12 colon = system: KM12 colon
U251 CNS = system: U251 CNS
HCT-116 colon = system: HCT-116 colon
LOX IMVI melanoma = system: LOX IMVI melanoma
COLO 205 colon = system: COLO 205 colon
RPMI-8226 leukemia = system: RPMI-8226 leukemia
UACC-257 melanoma = system: UACC-257 melanoma
OVCAR-4 ovarian = system: OVCAR-4 ovarian
NCI-H522 lung = system: NCI-H522 lung
K-562 leukemia = system: K-562 leukemia
SF-268 CNS = system: SF-268 CNS
OVCAR-5 ovarian = system: OVCAR-5 ovarian
HS 578T breast = system: HS 578T breast
HCT-15 colon = system: HCT-15 colon
MDA-MB-231 breast = system: MDA-MB-231 breast
CCRF-CEM leukemia = system: CCRF-CEM leukemia
A549 NSCLC = system: A549 NSCLC
SW-620 colon = system: SW-620 colon

CCC(C)(C)c1ccc(OCCCCCCN2CCN(c3ccncc3)CC2)cc1
TGI (BT-549 breast): 12.2 µM | GI50 (HL-60(TB) leukemia): 1.68 µM | TGI (HL-60(TB) leukemia): 4.06 µM | GI50 (RXF 393 renal): 1.89 µM | TGI (RXF 393 renal): 8.42 µM | GI50 (HT29 colon): 2.49 µM | TGI (HT29 colon): 8.86 µM | GI50 (NCI-H460 lung): 2.08 µM | TGI (NCI-H460 lung): 4.77 µM | GI50 (ACHN renal): 6.33 µM | TGI (ACHN renal): 19.5 µM | GI50 (MOLT-4 leukemia): 3.14 µM | TGI (MOLT-4 leukemia): 10.1 µM | GI50 (UACC-62 melanoma): 11.8 µM | TGI (UACC-62 melanoma): 24.9 µM | GI50 (A498 renal): 17.9 µM | TGI (A498 renal): 34.6 µM | GI50 (MDA-MB-435): 2.5 µM | TGI (MDA-MB-435): 8.34 µM | GI50 (SR leukemia): 2.13 µM | TGI (SR leukemia): 9.38 µM | GI50 (KM12 colon): 4.17 µM | TGI (KM12 colon): 15.9 µM | GI50 (U251 CNS): 3.06 µM | TGI (U251 CNS): 11.8 µM | GI50 (HCT-116 colon): 1.6 µM | TGI (HCT-116 colon): 3.85 µM | GI50 (LOX IMVI melanoma): 1.81 µM | TGI (LOX IMVI melanoma): 3.4 µM | GI50 (COLO 205 colon): 1.66 µM | TGI (COLO 205 colon): 3.33 µM | GI50 (RPMI-8226 leukemia): 2.06 µM | TGI (RPMI-8226 leukemia): 4.98 µM | GI50 (UACC-257 melanoma): 10.7 µM | TGI (UACC-257 melanoma): 23.8 µM | GI50 (OVCAR-4 ovarian): 6.33 µM | TGI (OVCAR-4 ovarian): 21 µM | GI50 (NCI-H522 lung): 11.8 µM | TGI (NCI-H522 lung): 26.5 µM | GI50 (K-562 leukemia): 1.52 µM | TGI (K-562 leukemia): 6.8 µM | GI50 (SF-268 CNS): 11.8 µM | TGI (SF-268 CNS): 27.9 µM | GI50 (OVCAR-5 ovarian): 13.4 µM | TGI (OVCAR-5 ovarian): 26.2 µM | GI50 (HS 578T breast): 7.73 µM | TGI (HS 578T breast): 26.9 µM | GI50 (HCT-15 colon): 1.75 µM | TGI (HCT-15 colon): 3.88 µM | GI50 (MDA-MB-231 breast): 3.16 µM | TGI (MDA-MB-231 breast): 12.2 µM | GI50 (CCRF-CEM leukemia): 2.02 µM | TGI (CCRF-CEM leukemia): 10.3 µM | GI50 (A549 NSCLC): 10.6 µM | TGI (A549 NSCLC): 26.6 µM | GI50 (SW-620 colon): 1.66 µM | TGI (SW-620 colon): 3.69 µM
